Experimental findings from ChEMBL document CHEMBL1140364, “Anxiolytic effects of benzalphthalides” (2005) are described below.

Holding throughout (assay type): functional
Test [1] concerns Mus musculus. Kind of test: Number of entries into the open arms of the maze for anxiolytic activity in ICR mouse through elevated plus maze test after intraperitoneal injection of 15 mg/kg.
Test [2] deals with Mus musculus. Kind of test: Percentage number of entries into the open arms of the maze for anxiolytic activity in ICR mouse through elevated plus test after intraperitoneal injection of 15 mg/kg.
The test system of test [3] is Mus musculus. Kind of test: Time spent into the open arms of the maze for anxiolytic activity in ICR mouse through elevated plus maze test after intraperitoneal injection of 15 mg/kg.
Test [4] has as its system Mus musculus. Kind of test: Number of entries into the closed arms of the maze for anxiolytic activity in ICR mouse through elevated plus test after intraperitoneal injection of 15 mg/kg.
The subject of test [5] is Mus musculus. The test can be described thus: Total number of entries into the open and closed arms of the maze for anxiolytic activity in ICR mouse through elevated plus test after intraperitoneal injection of 15 mg/kg.

For the compound `C[S+]([O-])c1ccc(/C=C2\OC(=O)c3ccccc32)cc1` (stereo not given), the No. of entries was 10.8 with Mus musculus [1], 55.6% in the test with Mus musculus [2] and 9 in the test with Mus musculus [4]. Moreover, the Spent time in the test on Mus musculus [3] amounted to 0.0427 h. Also, the “Total number of entries” value in the test on Mus musculus [5] is given as 19.8.
For `COc1cc(/C=C2\OC(=O)c3ccccc32)cc(OC)c1OC` the same measures were 8.3, 44.8%, 9, 0.0296 h and 17.3.
For `CSc1ccc(/C=C2\OC(=O)c3ccccc32)cc1`, in that order: 7.9, 49.5%, 9.9, 0.0363 h and 17.7.
As to `O=C1O/C(=C\c2ccc3c(c2)OCO3)c2ccccc21`, the No. of entries came out at 11.2 with Mus musculus [1], 54.4% in the test on Mus musculus [2] and 9 in the test with Mus musculus [4]. Further, the Spent time in the test on Mus musculus [3] stood at 0.0418 h. Besides, in the test with Mus musculus [5], the “Total number of entries” value is on record as 20.2.
For the compound `C=C(C)[C@@H]1[C@H]2OC(=O)[C@@H]1[C@]1(O)C[C@H]3OC34C(=O)O[C@H]2[C@@]41C.CC(C)(O)[C@@H]1[C@H]2OC(=O)[C@@H]1[C@]1(O)C[C@H]3OC34C(=O)O[C@H]2[C@@]41C` (stereo not given in full) [PICROTOXIN], the results for the No. of entries in the test on Mus musculus [1], in the test on Mus musculus [2] and in the test with Mus musculus [4] were 2.5, 19% and 9.4, respectively. Also, the Spent time with Mus musculus [3] was determined as 0.00739 h. In addition, the “Total number of entries” value in the test on Mus musculus [5] is on record as 11.8.
Regarding `COc1ccc(/C=C2\OC(=O)c3cc([N+](=O)[O-])c([N+](=O)[O-])cc32)cc1`, the No. of entries with Mus musculus [1] is on record as 11.7; in the test on Mus musculus [2] it was 51.7%; with Mus musculus [4], 10.5. The Spent time with Mus musculus [3] was determined as 0.0359 h. Further, the “Total number of entries” value with Mus musculus [5] worked out at 22.2.
For `CCCCCCCCCCCC(=O)OCCOCC(OCCO)C1OCC(OCCO)C1OCCO` (stereo not given), in that order: 9.6, 51.2%, 8.9, 0.034 h and 18.5.
Regarding `O=C1O/C(=C\c2ccc([N+](=O)[O-])cc2)c2ccccc21`, the No. of entries in the test with Mus musculus [1] came out at 9; with Mus musculus [2] it was 57.2%; in the test on Mus musculus [4], 7.3. In addition, the Spent time in the test on Mus musculus [3] was determined as 0.0441 h. For the same compound, the “Total number of entries” value in the test on Mus musculus [5] was 16.3.
For `CN1C(=O)CN=C(c2ccccc2)c2cc(Cl)ccc21` [DIAZEPAM] the same measures were 15.8, 82%, 3.7, 0.064 h and 19.5.
As for `CS(=O)(=O)c1ccc(/C=C2\OC(=O)c3ccccc32)cc1`, the values for the No. of entries with Mus musculus [1], in the test with Mus musculus [2] and in the test on Mus musculus [4] were 10.6, 69.9% and 5.6, respectively. In addition, the Spent time in the test with Mus musculus [3] is 0.052 h. The “Total number of entries” value in the test on Mus musculus [5] is given as 16.4.
With `COc1ccc(/C=C2\OC(=O)c3ccc(C(N)=O)cc32)cc1`, the No. of entries in the test on Mus musculus [1] is listed as 13; with Mus musculus [2], 50.2%; in the test on Mus musculus [4], 11.5. Besides, the Spent time in the test on Mus musculus [3] worked out at 0.0348 h. Also, the “Total number of entries” value in the test on Mus musculus [5] came to 24.
On to `COc1ccc(/C=C2\OC(=O)c3ccccc32)cc1`, for which the No. of entries worked out at 13 in the test on Mus musculus [1], 64.1% in the test with Mus musculus [2] and 7.1 with Mus musculus [4]. In addition, the Spent time in the test with Mus musculus [3] is 0.0493 h. In the test with Mus musculus [5], the “Total number of entries” value came to 20.1.
For `O=C1O/C(=C\c2ccc(Cl)cc2)c2ccccc21`, in that order: 8, 55.8%, 8.5, 0.0444 h and 16.5.
